From patent US6455554B1, “Oxopyridinyl pharmaceutical compositions and methods for use” (Targacept, Inc., priority 1999, dated 2002)
Several values for one entry are separate records, joined by “and”; a condition that tells them apart may be missing. Equal entries are not always repeated.

Tests used:
[1] = system: nicotinic cholinergic receptors that modulate dopamine release; test: Determination of dopamine release; format: cell-based
Procedure: Determination of Dopamine Release
Dopamine release was measured using the techniques described in U.S. Pat. No. 5,597,919 to Dull et al. Release is expressed as a percentage of release obtained with a concentration of (S)-(−)-nicotine resulting in maximal effects. Reported EC50 values are expressed in nM, and Emax values represent the amount released relative to (S)-(−)-nicotine on a percentage basis.

nicotinic receptors = test: Determination of rubidium ion release (rubidium ion flux assay); format: cell-based
Procedure: Determination of Rubidium Ion Release
Rubidium release was measured using the techniques described in Bencherif et al., JPET, 279: 1413-1421 (1996). Reported EC50 values are expressed in nM, and Emax values represent the amount of rubidium ion released relative to 300 uM tetramethylammonium ion, on a percentage basis.

[2] = target: T1, muscle-type nicotinic acetylcholine receptors (Homo sapiens, UniProt P02708+P07510+Q07001); test: Determination of interaction with muscle receptors; format: cell-based; design: Emax: dose or concentration left out as unconfirmed; details: for Emax: read-out: Emax at muscle-type receptors
T1 construct: cell preparations expressing muscle-type nicotinic acetylcholine receptors; endogenous in cells
T1 sequence (P02708 21-457): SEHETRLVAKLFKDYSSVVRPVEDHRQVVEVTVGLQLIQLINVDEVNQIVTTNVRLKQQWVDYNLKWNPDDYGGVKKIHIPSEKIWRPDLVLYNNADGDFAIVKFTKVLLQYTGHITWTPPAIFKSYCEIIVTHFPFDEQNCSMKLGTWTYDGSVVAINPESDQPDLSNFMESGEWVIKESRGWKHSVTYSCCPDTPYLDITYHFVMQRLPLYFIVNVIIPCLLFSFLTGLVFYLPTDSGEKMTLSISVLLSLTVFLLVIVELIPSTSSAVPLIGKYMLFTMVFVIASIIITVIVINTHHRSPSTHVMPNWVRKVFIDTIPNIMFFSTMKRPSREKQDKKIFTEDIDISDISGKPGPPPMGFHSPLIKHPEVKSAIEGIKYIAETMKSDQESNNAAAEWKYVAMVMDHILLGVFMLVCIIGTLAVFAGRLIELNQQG
T1 sequence (P11230 24-501 partner): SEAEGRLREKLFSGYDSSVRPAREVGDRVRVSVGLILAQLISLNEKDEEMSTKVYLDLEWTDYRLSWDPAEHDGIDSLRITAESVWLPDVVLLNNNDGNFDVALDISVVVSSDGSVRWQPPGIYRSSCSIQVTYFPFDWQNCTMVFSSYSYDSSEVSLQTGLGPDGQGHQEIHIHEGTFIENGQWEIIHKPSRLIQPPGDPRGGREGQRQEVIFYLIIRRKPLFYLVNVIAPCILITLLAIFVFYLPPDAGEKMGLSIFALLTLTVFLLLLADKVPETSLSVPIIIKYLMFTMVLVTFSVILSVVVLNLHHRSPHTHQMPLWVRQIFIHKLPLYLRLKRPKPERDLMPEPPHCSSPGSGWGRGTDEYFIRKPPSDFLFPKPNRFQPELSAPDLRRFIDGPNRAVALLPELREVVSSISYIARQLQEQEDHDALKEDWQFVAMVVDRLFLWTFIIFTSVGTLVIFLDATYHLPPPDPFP
T1 sequence (Q07001 22-517): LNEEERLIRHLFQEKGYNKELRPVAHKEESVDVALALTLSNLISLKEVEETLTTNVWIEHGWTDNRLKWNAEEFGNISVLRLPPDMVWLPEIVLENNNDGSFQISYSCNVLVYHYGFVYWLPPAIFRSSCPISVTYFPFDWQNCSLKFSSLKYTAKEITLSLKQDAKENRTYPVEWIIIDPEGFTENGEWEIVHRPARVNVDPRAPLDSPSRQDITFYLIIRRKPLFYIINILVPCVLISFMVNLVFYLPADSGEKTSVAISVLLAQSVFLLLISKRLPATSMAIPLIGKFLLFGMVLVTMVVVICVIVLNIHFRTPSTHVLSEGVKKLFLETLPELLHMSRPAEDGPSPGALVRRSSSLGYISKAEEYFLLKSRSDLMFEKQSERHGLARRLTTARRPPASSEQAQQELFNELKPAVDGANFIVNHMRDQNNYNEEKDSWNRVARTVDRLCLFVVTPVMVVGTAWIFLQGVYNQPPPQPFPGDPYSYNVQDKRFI
T1 sequence (P07510 23-517): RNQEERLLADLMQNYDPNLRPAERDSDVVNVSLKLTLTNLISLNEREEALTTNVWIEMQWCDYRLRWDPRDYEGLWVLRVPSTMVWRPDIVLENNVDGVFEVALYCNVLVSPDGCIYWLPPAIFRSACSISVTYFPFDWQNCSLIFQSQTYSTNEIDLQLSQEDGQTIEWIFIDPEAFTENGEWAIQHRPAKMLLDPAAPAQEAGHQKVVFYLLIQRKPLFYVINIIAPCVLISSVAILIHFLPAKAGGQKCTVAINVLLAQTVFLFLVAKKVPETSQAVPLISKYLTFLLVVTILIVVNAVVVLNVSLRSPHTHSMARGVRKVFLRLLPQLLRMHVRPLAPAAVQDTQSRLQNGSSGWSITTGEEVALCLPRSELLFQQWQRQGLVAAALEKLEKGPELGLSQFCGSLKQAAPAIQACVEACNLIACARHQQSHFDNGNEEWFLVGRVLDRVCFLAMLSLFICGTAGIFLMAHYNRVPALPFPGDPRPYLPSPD
From the text: The compounds of the present invention, when employed in effective amounts in accordance with the method of the present invention, lack the ability to elicit activation of nicotinic receptors of human muscle to any significant degree. […] Generally, typical preferred compounds useful in carrying the present invention activate isotopic rubidium ion flux by less than 10 percent, often by less than 5 percent, of that maximally provided by S(−) nicotine.
Determination of Interaction with Muscle Receptors
(§1) The determination of the interaction of the compounds with muscle receptors was carried out in accordance with the techniques described in U.S. Pat. No. 5,597,919 to Dull et al. The maximal activation for individual compounds (Emax) was determined as a percentage of the maximal activation induced by (S)-(−)-nicotine. Reported Emax values represent the amount released relative to (S)-(−)-nicotine on a percentage basis.

[3] = system: ganglionic-type nicotinic acetylcholine receptors; test: Determination of interaction with ganglion receptors; format: cell-based; details: at a concentration of 100 uM; relative to (S)-(-)-nicotine
From the text: By this is meant that a particular dose of compound resulting in prevention and/or treatment of a CNS disorder, is essentially ineffective in eliciting activation of certain ganglionic-type nicotinic receptors. […] As such, such compounds have poor ability to cause isotopic rubidium ion flux through nicotinic receptors in cell preparations derived from the adrenal gland. Generally, typical preferred compounds useful in carrying out the present invention activate isotopic rubidium ion flux by less than 10 percent, often by less than 5 percent, of that maximally provided by S(−) nicotine.
Determination of Interaction with Ganglion Receptors
as §1, with “ganglionic” for “muscle”

Rat brain synaptosomes = test: Neurotransmitter release from brain synaptosomes; format: cell-based; details: 10 M of ligand, percentage of release with 10 M (S)-(-)-nicotine or 300 MTMA
Procedure: Neurotransmitter Release from Brain Synaotosomes
Neurotransmitter release was measured using techniques similar to those previously published (Bencherif M, et al.:. JPET 279: 1413-1421, 1996).
Rat brain synaptosomes were prepared as follows: Female Sprague Dawley rats (100-200 g) were killed by decapitation after anesthesia with 70% CO2. Brains are dissected, and hippocampus, striatum, and thalamus isolated, and homogenized in 0.32 M sucrose containing 5 mM HEPES pH 7.4 using a glass/glass homogenizer. The tissue was then centrifuged for 1000×g for 10 minutes and the pellet discarded. The supernatant was centrifuged at 12000×g for 20 minutes. The resultant pellet was re-suspended in perfusion buffer (128 mM NaCl, 1.2 mM KH2PO4, 2.4 mM KCl, 3.2 mM CaCl2, 1.2 mM MgSO4, 25 mM HEPES, 1 mM Ascorbic acid, 0.01 mM pargyline HCl and 10 mM glucose pH 7.4) and centrifuged for 15 minutes at 25000×g. The final pellet was resuspended in perfusion buffer and placed in a water bath (37° C.) for 10 minutes. Radiolabeled neurotransmitter is added (30 L ^3H DA, 20 L ^3H NE, 10 L ^3H glutamate) to achieve a final concentration of 100 nM, vortexed and placed in a water bath for additional 10 minutes. Tissue-loaded filters is placed onto 11-mm diameter Gelman A/E filters on an open-air support. After a 10-minute wash period, fractions are collected to establish the basal release and agonist applied in the perfusion stream. Further fractions were collected after agonist application to re-establish the baseline. The perfusate was collected directly into scintillation vials and released radioactivity was quantified using conventional liquid scintillation techniques. Release of neurotransmitter was determined in the presence of […] of various ligands and was expressed as a percentage of release obtained with a concentration of 10 M (S)-(−)-nicotine or 300 MTMA resulting in maximal effects.

CNS nicotinic receptors = CNS nicotinic receptors (Rattus norvegicus, UniProt P09483+P12390); test: Determination of binding to relevant receptor sites; details: inhibition constants calculated from IC50 values by the method of Cheng et al.
Chain of CNS nicotinic receptors (P09483 31-630): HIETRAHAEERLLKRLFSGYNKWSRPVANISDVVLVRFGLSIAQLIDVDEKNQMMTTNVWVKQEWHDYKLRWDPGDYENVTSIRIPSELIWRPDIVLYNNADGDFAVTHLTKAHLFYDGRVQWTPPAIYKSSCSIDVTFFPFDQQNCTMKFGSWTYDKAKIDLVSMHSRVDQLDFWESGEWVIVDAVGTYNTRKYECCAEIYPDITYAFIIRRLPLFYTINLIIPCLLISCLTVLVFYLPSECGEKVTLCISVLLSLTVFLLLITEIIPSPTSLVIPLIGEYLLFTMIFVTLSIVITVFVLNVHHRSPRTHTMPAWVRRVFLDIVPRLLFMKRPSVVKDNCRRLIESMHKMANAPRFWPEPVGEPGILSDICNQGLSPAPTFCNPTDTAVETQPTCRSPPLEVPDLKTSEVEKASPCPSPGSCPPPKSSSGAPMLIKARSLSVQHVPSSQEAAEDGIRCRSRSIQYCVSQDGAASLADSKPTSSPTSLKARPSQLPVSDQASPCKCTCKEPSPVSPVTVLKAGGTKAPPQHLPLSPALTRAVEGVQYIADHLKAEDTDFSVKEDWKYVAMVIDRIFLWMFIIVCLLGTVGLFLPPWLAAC
Chain of CNS nicotinic receptors (P12390 25-500): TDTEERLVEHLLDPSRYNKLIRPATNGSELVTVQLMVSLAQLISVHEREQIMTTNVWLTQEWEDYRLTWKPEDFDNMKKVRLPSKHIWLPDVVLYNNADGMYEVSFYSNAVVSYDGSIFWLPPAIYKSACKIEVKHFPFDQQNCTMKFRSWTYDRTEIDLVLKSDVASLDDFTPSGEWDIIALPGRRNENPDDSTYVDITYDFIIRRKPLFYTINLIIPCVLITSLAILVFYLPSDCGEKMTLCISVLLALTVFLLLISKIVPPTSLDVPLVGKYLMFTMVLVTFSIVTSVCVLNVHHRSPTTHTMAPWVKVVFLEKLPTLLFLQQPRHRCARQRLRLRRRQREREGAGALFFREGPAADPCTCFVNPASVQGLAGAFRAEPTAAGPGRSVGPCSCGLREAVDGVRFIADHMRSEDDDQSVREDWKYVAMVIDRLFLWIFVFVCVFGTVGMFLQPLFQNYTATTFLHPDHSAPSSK
Procedure: Determination of Binding to Relevant Receptor Sites
Binding of the compounds to relevant receptor sites was determined in accordance with the techniques described in U.S. Pat. No. 5,597,919 to Dull et al. Inhibition constants (Ki values), reported in nM, were calculated from the IC50 values using the method of Cheng et al., Biochem, Pharmacol. 22:3099 (1973).

[4] = amount released relative to (S)-(-)-nicotine
[5] = rubidium ion released relative to 300 uM tetramethylammonium ion
[6] = at a concentration of 100 uM, relative to (S)-(-)-nicotine

Structure (SMILES)	EC50 [1] [µM]	Emax [1, 4] [%]	EC50 (nicotinic receptors) [µM]	Emax (nicotinic receptors; [5]) [%]	Emax [2] [%]	Emax at ganglionic-type receptors [3]	Emax (Rat brain synaptosomes) [%]	other results
CCSc1cncc(/C=C/CCNC)c1 [Sample No. 9, (3E)-N-methyl-4-(3-(5-ethylthiopyridin)yl)-3-buten-1-amine hemigalactarate]	0.875	39	0.191	40	7	22%	–	–
CNCC/C=C/c1cncc(OCC(C)C)c1 [Sample No. 6, (3E)-N-methyl-4-(3-(5-isobutoxypyridin)yl)-3-buten-1-amine hemigalactarate]	15	25	1	15	6	13%	–	–
CC(N)CC=Cc1cncc(OC(C)C)c1 (centres unmarked) [Sample No. 12, (4E)-5-(3-(5-isopropoxypyridin)yl)-4-penten-2-amine hemigalactarate]	–	–	–	–	–	5%	32	Emax at 100 µM [2, 6]: 13%
CNC(C)CC=Cc1cncc(C(F)(F)F)c1 (centres unmarked) [Sample No. 10, (4E)-N-methyl-5-(3-(5-trifluoromethylpyridin)yl)-4-penten-2-amine]	–	–	100	0	0	0%	50	–
CNC(C)CC=Cc1cncc(O)c1 (centres unmarked) [Sample No. 13, (4E)-N-methyl-5-(3-(5-hydroxypyridin)yl)-4-penten-2-amine sesquioxalate]	–	–	–	–	21	12%	80	–
CN[C@@H](C)C/C=C/c1cc(OC(C)C)c[n+]([O-])c1 [Sample No. 5]	–	–	–	–	7	8%	19	–
CNCC/C=C/c1cncc(C(=O)NCc2ccccc2)c1 [Sample No. 2, (3E)-N-methyl-N-[3-(5-(N-benzylcarboxamido)pyridin)yl]-3-buten-1-amine]	100	12	–	–	–	–	–	–
CNC(C)CC=Cc1ccc[n+]([O-])c1 (centres unmarked) [Sample No. 8, (4E)-N-methyl-5-(3-(1-oxopyridin)yl)-4-penten-2-amine]	–	–	–	–	0	8%	9	–
CNCC/C=C/c1cnc(N)c([N+](=O)[O-])c1 [Sample No. 1, (3E)-N-methyl-4-[3-(5-nitro-6-aminopyridin)yl]-3-buten-1-amine]	–	–	26	–	–	11% and 16%	–	Ki (CNS nicotinic receptors): 0.003 µM; Emax for dopamine release [1, 4]: 0%; neurotransmitter release Emax (Rat brain synaptosomes): 33%; Emax in the rubidium ion flux assay (nicotinic receptors; [5]): 22%; Emax at muscle-type receptors [2, 6]: 10% and 11%
